{"source": "patent US20230365592A1", "about": "(Agios Pharmaceuticals, Inc., priority 2022, published 2023)"}
{"target": "T1, human PAH with the R408W mutation (Homo sapiens, UniProt P00439, R408W)", "T1 construct": "expressed in transfected cells", "T1 sequence (P00439 1-452 R408W)": "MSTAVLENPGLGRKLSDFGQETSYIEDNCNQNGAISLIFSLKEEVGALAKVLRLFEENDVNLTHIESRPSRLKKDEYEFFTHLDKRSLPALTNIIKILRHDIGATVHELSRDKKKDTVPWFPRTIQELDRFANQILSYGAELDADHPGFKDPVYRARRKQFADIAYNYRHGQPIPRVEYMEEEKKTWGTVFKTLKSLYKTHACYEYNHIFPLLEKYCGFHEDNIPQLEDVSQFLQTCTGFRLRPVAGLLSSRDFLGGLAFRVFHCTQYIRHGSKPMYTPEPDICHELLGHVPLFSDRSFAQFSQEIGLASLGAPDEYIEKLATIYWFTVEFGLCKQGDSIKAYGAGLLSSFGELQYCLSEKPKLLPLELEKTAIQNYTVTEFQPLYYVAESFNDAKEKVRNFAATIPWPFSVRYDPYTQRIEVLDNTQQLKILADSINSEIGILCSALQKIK", "assay": "Cell Based Phenylalanine Flux Assay;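 note: after compound treatment, cells received sepiapterin plus isotope-labelled Phenylalanine for 4 hours, then labelled Tyrosine in the medium was quantified, 10-point 2-fold dilution series run in duplicate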", "details": "A375 cells expressing human PAH R408W; 24 hrs compound incubation; 13C-Tyrosine by LC-MS; average where tested multiple times; read-out: AC50", "units": {"AC50": "µM"}}
{"smiles": "Cc1c(-c2ncc(C(=O)N3CCc4[nH]cnc4[C@@H]3c3cc4c(F)cccn4n3)o2)cnn1C", "note": "[Example 2067, (R)-(2-(1,5-dimethyl-1H-pyrazol-4-yl)oxazol-5-yl)(4-(4-fluoropyrazolo[1,5-a]pyridin-2-yl)-1,4,6,7-tetrahydro-5H-imidazo[4,5-c]pyridin-5-yl)methanone]", "AC50": "> 5"}
{"smiles": "Cc1c(-c2ncc(C(=O)N3CCc4[nH]cnc4[C@H]3c3cc4c(C(F)F)cccn4n3)o2)cnn1C", "note": "[Example 2068, (S)-(4-(4-(difluoromethyl)pyrazolo[1,5-a]pyridin-2-yl)-1,4,6,7-tetrahydro-5H-imidazo[4,5-c]pyridin-5-yl)(2-(1,5-dimethyl-1H-pyrazol-4-yl)oxazol-5-yl)methanone]", "AC50": "0.5 to 1"}
{"smiles": "Cc1cccc2cc([C@@H]3c4nc[nH]c4CCN3C(=O)c3ocnc3C3CC3)nn12", "note": "[Example 2070, (S)-(4-cyclopropyloxazol-5-yl)(4-(7-methylpyrazolo[1,5-a]pyridin-2-yl)-1,4,6,7-tetrahydro-5H-imidazo[4,5-c]pyridin-5-yl)methanone]", "AC50": "< 0.5"}
{"smiles": "Cn1cc(-c2nc(C3CC3)c(C(=O)N3CCc4[nH]cnc4[C@@H]3c3cc4c(F)cccn4n3)o2)cn1", "note": "[Example 2072, (R)-(4-cyclopropyl-2-(1-methyl-1H-pyrazol-4-yl)oxazol-5-yl)(4-(4-fluoropyrazolo[1,5-a]pyridin-2-yl)-1,4,6,7-tetrahydro-5H-imidazo[4,5-c]pyridin-5-yl)methanone]", "AC50": "> 5"}
{"smiles": "Cn1cc(-c2nc(C3CC3)c(C(=O)N3CCc4[nH]cnc4[C@H]3c3cc4c(F)cccn4n3)o2)cn1", "note": "[Example 2073, (S)-(4-cyclopropyl-2-(1-methyl-1H-pyrazol-4-yl)oxazol-5-yl)(4-(4-fluoropyrazolo[1,5-a]pyridin-2-yl)-1,4,6,7-tetrahydro-5H-imidazo[4,5-c]pyridin-5-yl)methanone]", "AC50": "0.5 to 1"}
{"smiles": "Cc1cccn2nc([C@@H]3c4nc[nH]c4CCN3C(=O)c3oc(-c4cnn(C)c4)nc3C3CC3)cc12", "note": "[Example 2074]", "AC50": "< 0.5"}
{"smiles": "O=C(c1ncco1)N1CCc2[nH]cnc2[C@H]1c1cc2c(C(F)F)cccn2n1", "note": "[Example 2076, (S)-(4-(4-(difluoromethyl)pyrazolo[1,5-a]pyridin-2-yl)-1,4,6,7-tetrahydro-5H-imidazo[4,5-c]pyridin-5-yl)(oxazol-2-yl)methanone]", "AC50": "0.5 to 1"}
{"smiles": "O=C(c1ncco1)N1CCc2[nH]cnc2[C@@H]1c1cc2c(C(F)F)cccn2n1", "note": "[Example 2077, (R)-(4-(4-(difluoromethyl)pyrazolo[1,5-a]pyridin-2-yl)-1,4,6,7-tetrahydro-5H-imidazo[4,5-c]pyridin-5-yl)(oxazol-2-yl)methanone]", "AC50": "> 5"}
{"smiles": "O=C(c1ncco1)N1CCc2[nH]cnc2[C@H]1c1cc2c(C(F)(F)F)cccn2n1", "note": "[Example 2078, (S)-oxazol-2-yl(4-(4-(trifluoromethyl)pyrazolo[1,5-a]pyridin-2-yl)-1,4,6,7-tetrahydro-5H-imidazo[4,5-c]pyridin-5-yl)methanone]", "AC50": "0.5 to 1"}
{"smiles": "O=C(C1CCC1)N1CCc2[nH]cnc2[C@H]1c1cc2c(F)cccn2n1", "note": "[Example 2080, (S)-cyclobutyl(4-(4-fluoropyrazolo[1,5-a]pyridin-2-yl)-1,4,6,7-tetrahydro-5H-imidazo[4,5-c]pyridin-5-yl)methanone]", "AC50": "< 0.5"}
{"smiles": "Cc1nnc(N2CCc3[nH]cnc3[C@H]2c2cc3c(C(C)C)cccn3n2)o1", "note": "[Example 2083, (S)-2-(4-(4-isopropylpyrazolo[1,5-a]pyridin-2-yl)-1,4,6,7-tetrahydro-5H-imidazo[4,5-c]pyridin-5-yl)-5-methyl-1,3,4-oxadiazole]", "AC50": "< 0.5"}
{"smiles": "CC(C)c1cccn2nc([C@H]3c4nc[nH]c4CCN3c3nnc(C(F)F)o3)cc12", "note": "[Example 2084, (R)-2-(difluoromethyl)-5-(4-(4-isopropylpyrazolo[1,5-a]pyridin-2-yl)-1,4,6,7-tetrahydro-5H-imidazo[4,5-c]pyridin-5-yl)-1,3,4-oxadiazole]", "AC50": "> 5"}
{"smiles": "CC(C)c1cccn2nc([C@@H]3c4nc[nH]c4CCN3c3nnc(C(F)F)o3)cc12", "note": "[Example 2085, (S)-2-(difluoromethyl)-5-(4-(4-isopropylpyrazolo[1,5-a]pyridin-2-yl)-1,4,6,7-tetrahydro-5H-imidazo[4,5-c]pyridin-5-yl)-1,3,4-oxadiazole]", "AC50": "< 0.5"}
{"smiles": "Fc1ccc(-c2nnc(N3CCc4[nH]cnc4[C@H]3c3cc4cccc(Cl)n4n3)o2)cc1", "note": "[Example 2086, (S)-2-(4-(7-chloropyrazolo[1,5-a]pyridin-2-yl)-1,4,6,7-tetrahydro-5H-imidazo[4,5-c]pyridin-5-yl)-5-(4-fluorophenyl)-1,3,4-oxadiazole]", "AC50": "< 0.5"}
{"smiles": "Fc1cccc(F)c1-c1nnc(N2CCc3[nH]cnc3[C@H]2c2cc3cccc(Cl)n3n2)o1", "note": "[Example 2089, (S)-2-(4-(7-chloropyrazolo[1,5-a]pyridin-2-yl)-1,4,6,7-tetrahydro-5H-imidazo[4,5-c]pyridin-5-yl)-5-(2,6-difluorophenyl)-1,3,4-oxadiazole]", "AC50": "< 0.5"}
{"smiles": "Cc1cccc2cc([C@@H]3c4nc[nH]c4CCN3c3nnc(-c4c(F)cccc4F)o3)nn12", "note": "[Example 2091, (S)-2-(2,6-difluorophenyl)-5-(4-(7-methylpyrazolo[1,5-a]pyridin-2-yl)-1,4,6,7-tetrahydro-5H-imidazo[4,5-c]pyridin-5-yl)-1,3,4-oxadiazole]", "AC50": "< 0.5"}
{"smiles": "Fc1cccc(F)c1-c1nnc(N2CCc3[nH]cnc3[C@@H]2c2cc3cccc(C(F)F)n3n2)o1", "note": "[Example 2092, (R)-2-(4-(7-(difluoromethyl)pyrazolo[1,5-a]pyridin-2-yl)-1,4,6,7-tetrahydro-5H-imidazo[4,5-c]pyridin-5-yl)-5-(2,6-difluorophenyl)-1,3,4-oxadiazole]", "AC50": "> 5"}
{"smiles": "Fc1cccc(F)c1-c1nnc(N2CCc3[nH]cnc3[C@H]2c2cc3cccc(C(F)F)n3n2)o1", "note": "[Example 2093, (S)-2-(4-(7-(difluoromethyl)pyrazolo[1,5-a]pyridin-2-yl)-1,4,6,7-tetrahydro-5H-imidazo[4,5-c]pyridin-5-yl)-5-(2,6-difluorophenyl)-1,3,4-oxadiazole]", "AC50": "< 0.5"}
{"smiles": "FC(F)(F)c1ccc(N2CCc3[nH]cnc3[C@H]2c2cc3c(Cl)cccn3n2)nc1", "note": "[Example 2095, (S)-4-(4-chloropyrazolo[1,5-a]pyridin-2-yl)-5-(5-(trifluoromethyl)pyridin-2-yl)-4,5,6,7-tetrahydro-1H-imidazo[4,5-c]pyridine]", "AC50": "< 0.5"}
{"smiles": "Cc1cccc2cc([C@H]3c4nc[nH]c4CCN3c3ccc(C(F)(F)F)cn3)nn12", "note": "[Example 2096, (R)-4-(7-methylpyrazolo[1,5-a]pyridin-2-yl)-5-(5-(trifluoromethyl)pyridin-2-yl)-4,5,6,7-tetrahydro-1H-imidazo[4,5-c]pyridine]", "AC50": "> 5"}
{"smiles": "O=C(c1cnc(C2CC2)o1)N1CCc2[nH]cnc2[C@H]1c1cc2c(C(F)F)cccn2n1", "note": "[Example 2102, (S)-(2-cyclopropyloxazol-5-yl)(4-(4-(difluoromethyl)pyrazolo[1,5-a]pyridin-2-yl)-1,4,6,7-tetrahydro-5H-imidazo[4,5-c]pyridin-5-yl)methanone]", "AC50": "< 0.5"}
{"smiles": "CC(C)(C)c1ncc(C(=O)N2CCc3[nH]cnc3[C@H]2c2cc3c(C(F)F)cccn3n2)o1", "note": "[Example 2104, (S)-(2-(tert-butyl)oxazol-5-yl)(4-(4-(difluoromethyl)pyrazolo[1,5-a]pyridin-2-yl)-1,4,6,7-tetrahydro-5H-imidazo[4,5-c]pyridin-5-yl)methanone]", "AC50": "< 0.5"}
{"smiles": "CC(C)(F)c1ncc(C(=O)N2CCc3[nH]cnc3[C@H]2c2cc3c(C(F)F)cccn3n2)o1", "note": "[Example 2106, (S)-(4-(4-(difluoromethyl)pyrazolo[1,5-a]pyridin-2-yl)-1,4,6,7-tetrahydro-5H-imidazo[4,5-c]pyridin-5-yl)(2-(2-fluoropropan-2-yl)oxazol-5-yl)methanone]", "AC50": "< 0.5"}
{"smiles": "Cn1ccc(-c2ncc(C(=O)N3CCc4[nH]cnc4[C@H]3c3cc4c(C(F)(F)F)cccn4n3)o2)n1", "note": "[Example 2109, (S)-(2-(1-methyl-1H-pyrazol-3-yl)oxazol-5-yl)(4-(4-(trifluoromethyl)pyrazolo[1,5-a]pyridin-2-yl)-1,4,6,7-tetrahydro-5H-imidazo[4,5-c]pyridin-5-yl)methanone]", "AC50": "0.5 to 1"}
{"smiles": "Cc1c(-c2ncc(C(=O)N3CCc4[nH]cnc4[C@H]3c3cc4c(C(F)(F)F)cccn4n3)o2)cnn1C", "note": "[Example 2110, (S)-(2-(1,5-dimethyl-1H-pyrazol-4-yl)oxazol-5-yl)(4-(4-(trifluoromethyl)pyrazolo[1,5-a]pyridin-2-yl)-1,4,6,7-tetrahydro-5H-imidazo[4,5-c]pyridin-5-yl)methanone]", "AC50": "< 0.5"}
{"smiles": "O=C(c1ocnc1C1CC1)N1CCc2[nH]cnc2[C@H]1c1cc2cccc(C(F)F)n2n1", "note": "[Example 2112, (S)-(4-cyclopropyloxazol-5-yl)(4-(7-(difluoromethyl)pyrazolo[1,5-a]pyridin-2-yl)-1,4,6,7-tetrahydro-5H-imidazo[4,5-c]pyridin-5-yl)methanone]", "AC50": "0.5 to 1"}
{"smiles": "O=C(c1ocnc1C1CC1)N1CCc2[nH]cnc2[C@@H]1c1cc2cccc(C(F)F)n2n1", "note": "[Example 2113, (R)-(4-cyclopropyloxazol-5-yl)(4-(7-(difluoromethyl)pyrazolo[1,5-a]pyridin-2-yl)-1,4,6,7-tetrahydro-5H-imidazo[4,5-c]pyridin-5-yl)methanone]", "AC50": "> 5"}
